Measured values taken from PubChem BioAssay (NCI).
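Dose response: 5 concentrations. Exposure: 48 h. Format: 96-well plates. Endpoint: linear interpolation; highest concentration if not reached. TGI is the concentration that stops growth completely.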

Columns and labels:
Experiment in all cases: NCI tumour cell line growth inhibition, 48 h
[1] = tested on: SK-OV-3 ovarian
[2] = tested on: OVCAR-8 ovarian
[3] = tested on: HT29 colon
[4] = tested on: HCC-2998 colon
[5] = tested on: ACHN renal
[6] = tested on: SNB-75 CNS
[7] = tested on: NCI-H226 lung
[8] = tested on: A549 NSCLC
[9] = tested on: MDA-N
[10] = tested on: HCT-15 colon
[11] = tested on: TK-10 renal
[12] = tested on: MOLT-4 leukemia
[13] = tested on: UACC-257 melanoma
[14] = tested on: DU-145 prostate
[15] = tested on: U251 CNS
[16] = tested on: KM12 colon
[17] = tested on: HL-60(TB) leukemia
[18] = tested on: MDA-MB-231 breast
[19] = tested on: SR leukemia
[20] = tested on: 786-0 renal
[21] = tested on: T-47D breast
[22] = tested on: OVCAR-3 ovarian
[23] = tested on: HOP-92 NSCLC
[24] = tested on: COLO 205 colon
[25] = tested on: SNB-19 CNS
[26] = tested on: SW-620 colon
[27] = tested on: HOP-62 NSCLC
[28] = tested on: NCI-H460 lung
[29] = tested on: SK-MEL-28 melanoma
[30] = tested on: A498 renal
[31] = tested on: SK-MEL-2 melanoma
[32] = tested on: M14 melanoma
[33] = tested on: IGROV1 ovarian
[34] = tested on: OVCAR-5 ovarian
[35] = tested on: HS 578T breast
[36] = tested on: MALME-3M melanoma
[37] = tested on: UO-31 renal
[38] = tested on: SK-MEL-5 melanoma
[39] = tested on: MCF7 breast
[40] = tested on: SF-539 CNS
[41] = tested on: OVCAR-4 ovarian
[42] = tested on: CCRF-CEM leukemia
[43] = tested on: EKVX NSCLC
[44] = tested on: NCI/ADR-RES ovarian
[45] = tested on: MDA-MB-435
[46] = tested on: SF-268 CNS
[47] = tested on: HCT-116 colon
[48] = tested on: NCI-H522 lung
[49] = tested on: SN12C renal
[50] = tested on: K-562 leukemia
[51] = tested on: UACC-62 melanoma
[52] = tested on: LOX IMVI melanoma
[53] = tested on: NCI-H23 lung
[54] = tested on: CAKI-1 renal
[55] = tested on: PC-3 prostate
[56] = tested on: BT-549 breast
[57] = tested on: SF-295 CNS
[58] = tested on: RXF 393 renal
[59] = tested on: RPMI-8226 leukemia

SMILES: CCCS(=O)(=O)Nc1ccc(Nc2c3ccccc3nc3ccccc23)c(OC)c1
- TGI [1]: 16.4 µM
- TGI [2]: 5.82 µM
- TGI [3]: 7.16 µM
- TGI [4]: 6.3 µM
- TGI [5]: 4.02 µM
- TGI [6]: 6.49 µM
- TGI [7]: 13 µM
- TGI [8]: 5.99 µM
- TGI [9]: 20.2 µM
- TGI [10]: 6.41 µM
- TGI [11]: 15.6 µM
- TGI [12]: 0.231 µM
- TGI [13]: 19.8 µM
- TGI [14]: 4.54 µM
- TGI [15]: 4.41 µM
- TGI [16]: 14.7 µM
- TGI [17]: 0.45 µM
- TGI [18]: 10.4 µM
- TGI [19]: 0.85 µM
- TGI [20]: 3.49 µM
- TGI [21]: 20.5 µM
- TGI [22]: 7.86 µM
- TGI [23]: 17.5 µM
- TGI [24]: 20.8 µM
- TGI [25]: 8.98 µM
- TGI [26]: 21.3 µM
- TGI [27]: 5.72 µM
- TGI [28]: 2.6 µM
- TGI [29]: 1.3 µM
- TGI [30]: 6 µM
- TGI [31]: 7.7 µM
- TGI [32]: 17.8 µM
- TGI [33]: 18.2 µM
- TGI [34]: 23.6 µM
- TGI [35]: 16.7 µM
- TGI [36]: 6.68 µM
- TGI [37]: 6.47 µM
- TGI [38]: 14.7 µM
- TGI [39]: 16.3 µM
- TGI [40]: 4.18 µM
- TGI [41]: 32.4 µM
- TGI [42]: 0.499 µM
- TGI [43]: 28.8 µM
- TGI [44]: 37.1 µM
- TGI [45]: 26.3 µM
- TGI [46]: 8.31 µM
- TGI [47]: 13.2 µM
- TGI [48]: 5.33 µM
- TGI [49]: 3.18 µM
- TGI [50]: > 42.7 µM
- TGI [51]: 13.1 µM
- TGI [52]: 4.9 µM
- TGI [53]: 8.26 µM
- TGI [54]: 13.7 µM
- TGI [55]: 17.6 µM
- TGI [56]: 9.99 µM
- TGI [57]: 8.31 µM
- TGI [58]: 14.9 µM

SMILES: CC(=O)N(C(=O)CC(=O)N/N=C\c1ccc(Br)c(N(CCC#N)CCC#N)c1)c1ccc(Cl)cc1
- TGI [1]: > 100 µM
- TGI [2]: > 100 µM
- TGI [4]: > 100 µM
- TGI [5]: > 100 µM
- TGI [6]: > 100 µM
- TGI [7]: > 100 µM
- TGI [8]: > 100 µM
- TGI [9]: > 100 µM
- TGI [10]: > 100 µM
- TGI [11]: > 100 µM
- TGI [12]: > 100 µM
- TGI [14]: > 100 µM
- TGI [15]: > 100 µM
- TGI [16]: > 100 µM
- TGI [17]: > 100 µM
- TGI [18]: > 100 µM
- TGI [19]: > 100 µM
- TGI [20]: > 100 µM
- TGI [21]: > 100 µM
- TGI [22]: > 100 µM
- TGI [23]: > 100 µM
- TGI [24]: > 100 µM
- TGI [25]: > 100 µM
- TGI [26]: > 100 µM
- TGI [27]: > 100 µM
- TGI [28]: > 100 µM
- TGI [29]: > 100 µM
- TGI [30]: > 100 µM
- TGI [32]: > 100 µM
- TGI [33]: > 100 µM
- TGI [34]: 55.9 µM
- TGI [35]: > 100 µM
- TGI [36]: > 100 µM
- TGI [37]: > 100 µM
- TGI [39]: > 100 µM
- TGI [40]: > 100 µM
- TGI [42]: > 100 µM
- TGI [43]: > 100 µM
- TGI [44]: > 100 µM
- TGI [45]: > 100 µM
- TGI [46]: > 100 µM
- TGI [47]: > 100 µM
- TGI [49]: > 100 µM
- TGI [50]: > 100 µM
- TGI [51]: > 100 µM
- TGI [52]: > 100 µM
- TGI [53]: > 100 µM
- TGI [54]: > 100 µM
- TGI [55]: > 100 µM
- TGI [56]: > 100 µM
- TGI [59]: > 100 µM
- TGI [57]: > 100 µM
- TGI [58]: > 100 µM
